Laboratory results reported in US11076598B2, “Peroxide-based disinfecting solutions containing inorganic salts” (Diversey, Inc., priority 2017, dated 2021).

Assay: Antimicrobial efficacy of the inorganic salt on its own
Settings: salt alone at the concentration employed in the solutions

Row | SMILES | antimicrobial efficacy of the salt on its own
1 | N.N.O=S(=O)(O)O [ammonium sulphate] | no antimicrobial efficacy on its own
2 | [Cl-].[Na+] [sodium chloride] | no antimicrobial efficacy on its own
